Assay in all cases: MIC with cefepime, agar microdilution, CLSI
Format in all cases: cell-based

One assay relates to A. baumannii 0057. Particulars: compound fixed at 4 ug/ml; ADC-7. Put shortly:
(§1)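 Agar microdilution per CLSI guidelines; MIC read for cefepime with the test compound held at a fixed 4 ug/ml.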

For a further assay, the system named is E. coli 29838. The following applies: compound fixed at 4 ug/ml; CTX-M-14, TEM-1. A digest of the protocol:
as §1

A further assay concerns E. coli ATCC BAA202. Particulars: compound fixed at 4 ug/ml; SHV-1. Put shortly: as §1
Assay [1] concerns E. coli DH10B pBC-SK KPC-2. The following applies: compound fixed at 4 ug/ml. Put shortly: as §1
The test system of the next assay is E. coli DH10B pBC-SK P99. The following applies: compound fixed at 4 ug/ml. Put shortly: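 Fixed 4 ug/ml compound + cefepime; agar microdilution, CLSI.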
The subject of assay [2] is E. coli DH10B pBC-SK PDC-3. Particulars: compound fixed at 4 ug/ml. A digest of the protocol: as §1
In assay [3] the test system is E. coli DH10B pBC-SK control. Particulars: compound fixed at 4 ug/ml; B-lactamases none. Put shortly:
as §1

In the next assay the test system is E. coli pLTCF2. The following applies: compound fixed at 4 ug/ml. A digest of the protocol: as §1
Another assay has as its system K. pneumoniae 255. Particulars: compound fixed at 4 ug/ml; TEM-1, SHV-2. A digest of the protocol:
as §1

In another assay the test system is K. pneumoniae 266. Particulars: compound fixed at 4 ug/ml; SHV-5. Put shortly:
as §1

In the next assay the test system is K. pneumoniae 34700. Particulars: compound fixed at 4 ug/ml; CTX-M-15, SHV, TEM. Put shortly:
as §1

The test system of a further assay is K. pneumoniae 427. Particulars: compound fixed at 4 ug/ml; TEM-1, SHV-1, CTX-M-3. Put shortly: as §1
The subject of a further assay is K. pneumoniae ST17. Particulars: compound fixed at 4 ug/ml; KPC-2, TEM, SHV, CTX-M-Group 1. A digest of the protocol:
as §1

A further assay concerns K. pneumoniae ST258 B5. Particulars: compound fixed at 4 ug/ml; KPC-2. Put shortly: as §1
Assay [4] relates to K. pneumoniae original KPC-2. Particulars: compound fixed at 4 ug/ml. A digest of the protocol: as §1

With `Nc1nnc(SCC(=O)NC(Cn2cc(C(=O)O)nn2)B(O)O)s1` (stereo not drawn) [MB076], the MIC of cefepime in combination with compound is 64 µg/mL in the assay with A. baumannii 0057; less than 0.25 µg/mL in the assay with E. coli 29838; less than 0.25 µg/mL in the assay on E. coli ATCC BAA202; less than 0.25 µg/mL in assay [1]; less than 0.25 µg/mL in the assay on E. coli DH10B pBC-SK P99; less than 0.25 µg/mL in assay [2]. Besides, the MIC of cefepime in combination with compound is less than 0.25 µg/mL in assay [3]; less than 0.25 µg/mL with E. coli pLTCF2; 2 µg/mL in the assay on K. pneumoniae 255; less than 0.25 µg/mL in the assay on K. pneumoniae 266; 1 µg/mL in the assay with K. pneumoniae 34700; less than 0.25 µg/mL in the assay with K. pneumoniae 427. Besides, the values for the MIC of cefepime in combination with compound (in the assay on K. pneumoniae ST17; in the assay on K. pneumoniae ST258 B5; in [4]) were 16 µg/mL, 8 µg/mL and less than 0.25 µg/mL, respectively.

Source of the values: patent publication US20250340577A1, “BETA-LACTOMASE INHIBITORS AND USES THEREOF” (Case Western Reserve University, priority 2021, published 2025).
